Assay results as given in the NIST ThermoML archive (doi:10.1016/j.tca.2015.01.012).

Conditions: 101.33 kPa, Crystal; for molar entropy: Small (less than 1 g) adiabatic calorimetry; for mass density: X-ray diffraction

O=C(O)c1cccnc1 [3-carboxylpyridine]
Conditions	mass density [kg/m3]	molar entropy [J/K/mol]
1 K	–	0.0005
2 K	–	0.004
3 K	–	0.0136
4 K	–	0.0323
5 K	–	0.063
6 K	–	0.1089
7 K	–	0.1788
8 K	–	0.2634
9 K	–	0.3747
10 K	–	0.5086
15 K	–	1.592
20 K	–	3.297
25 K	–	5.543
30 K	–	8.212
35 K	–	11.2
40 K	–	14.39
45 K	–	17.7
50 K	–	21.08
60 K	–	27.91
70 K	–	34.69
80 K	–	41.32
90 K	–	47.75
100 K	–	53.98
110 K	–	60.02
120 K	–	65.91
130 K	–	71.64
140 K	–	77.24
150 K	1481	82.72
160 K	–	88.1
170 K	–	93.38
175 K	1477	–
180 K	–	98.6
190 K	–	103.7
200 K	1471	108.9
210 K	–	113.9
220 K	–	119
225 K	1465	–
230 K	–	124
240 K	–	129
250 K	1460	134.1
260 K	–	139.1
270 K	–	144.2
273.15 K	–	145.7
275 K	1454	–
280 K	–	149.2
290 K	–	154.3
298.15 K	–	158.4
300 K	1444	159.3
310 K	–	164.4
320 K	–	169.5
325 K	1436	–
330 K	–	174.6
340 K	–	179.7
346 K	–	182.8
350 K	1430	–
375 K	1422	–
400 K	1413	–
425 K	1406	–
